{
  "source": "ChEMBL document CHEMBL5465560",
  "about": "“Selectivity Literature for EUbOPEN Chemogenomic Library” (2024)",
  "key": {"[1]": {"biological_target": "Tyrosine-protein kinase BTK (Homo sapiens, UniProt Q06187)", "sequence (Q06187 whole entry)": "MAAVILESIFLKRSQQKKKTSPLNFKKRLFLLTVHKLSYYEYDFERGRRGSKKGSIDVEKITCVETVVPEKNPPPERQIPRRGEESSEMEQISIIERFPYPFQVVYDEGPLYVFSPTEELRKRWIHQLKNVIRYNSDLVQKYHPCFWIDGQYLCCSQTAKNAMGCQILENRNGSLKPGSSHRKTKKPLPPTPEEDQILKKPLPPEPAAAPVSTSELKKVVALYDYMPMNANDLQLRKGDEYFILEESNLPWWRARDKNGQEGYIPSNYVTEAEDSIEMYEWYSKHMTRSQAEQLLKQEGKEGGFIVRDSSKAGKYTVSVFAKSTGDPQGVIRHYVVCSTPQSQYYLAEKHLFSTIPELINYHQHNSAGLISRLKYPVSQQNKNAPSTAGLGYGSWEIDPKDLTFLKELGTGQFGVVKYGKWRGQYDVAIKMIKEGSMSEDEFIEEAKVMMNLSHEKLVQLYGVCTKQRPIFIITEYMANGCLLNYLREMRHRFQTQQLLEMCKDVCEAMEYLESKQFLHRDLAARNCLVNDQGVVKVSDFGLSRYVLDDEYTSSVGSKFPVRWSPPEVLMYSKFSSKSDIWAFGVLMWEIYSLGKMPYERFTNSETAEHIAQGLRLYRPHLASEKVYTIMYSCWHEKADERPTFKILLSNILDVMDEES", "settings": "at 10 µM"}, "[2]": {"biological_target": "T1, Serine/threonine-protein kinase TAO3 (Homo sapiens) (UniProt Q9H2K8)", "T1 sequence (whole entry)": "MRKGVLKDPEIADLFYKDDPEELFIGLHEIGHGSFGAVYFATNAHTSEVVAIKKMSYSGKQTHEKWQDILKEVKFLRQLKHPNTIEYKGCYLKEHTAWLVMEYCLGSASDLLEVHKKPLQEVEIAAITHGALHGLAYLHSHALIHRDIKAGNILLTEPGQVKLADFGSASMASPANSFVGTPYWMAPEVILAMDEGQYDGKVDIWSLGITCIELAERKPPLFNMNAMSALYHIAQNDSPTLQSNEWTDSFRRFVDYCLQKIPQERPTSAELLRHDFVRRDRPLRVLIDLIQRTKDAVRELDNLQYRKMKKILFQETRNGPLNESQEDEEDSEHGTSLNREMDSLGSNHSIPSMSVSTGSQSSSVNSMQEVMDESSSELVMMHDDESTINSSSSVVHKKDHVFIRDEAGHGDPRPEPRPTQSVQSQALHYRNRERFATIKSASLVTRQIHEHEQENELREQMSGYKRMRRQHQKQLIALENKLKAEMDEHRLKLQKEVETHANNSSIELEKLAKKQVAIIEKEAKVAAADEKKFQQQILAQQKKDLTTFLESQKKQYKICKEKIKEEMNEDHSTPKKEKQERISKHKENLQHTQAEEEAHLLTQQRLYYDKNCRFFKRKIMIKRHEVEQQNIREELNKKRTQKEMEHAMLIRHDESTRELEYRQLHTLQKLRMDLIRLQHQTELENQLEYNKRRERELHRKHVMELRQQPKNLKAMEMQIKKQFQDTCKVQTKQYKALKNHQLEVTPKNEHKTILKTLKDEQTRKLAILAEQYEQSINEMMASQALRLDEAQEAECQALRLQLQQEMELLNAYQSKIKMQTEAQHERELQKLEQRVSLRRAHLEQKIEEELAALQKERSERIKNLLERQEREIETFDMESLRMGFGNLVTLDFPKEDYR", "test": "Selectivity interaction (Upstate Kinase Profiler service (Millipore)) EUB0000056c TAOK3", "settings": "at 1 µM"}, "[3]": {"biological_target": "T2, Beta-adrenergic receptor kinase 1 (Homo sapiens) (UniProt P25098)", "T2 sequence (whole entry)": "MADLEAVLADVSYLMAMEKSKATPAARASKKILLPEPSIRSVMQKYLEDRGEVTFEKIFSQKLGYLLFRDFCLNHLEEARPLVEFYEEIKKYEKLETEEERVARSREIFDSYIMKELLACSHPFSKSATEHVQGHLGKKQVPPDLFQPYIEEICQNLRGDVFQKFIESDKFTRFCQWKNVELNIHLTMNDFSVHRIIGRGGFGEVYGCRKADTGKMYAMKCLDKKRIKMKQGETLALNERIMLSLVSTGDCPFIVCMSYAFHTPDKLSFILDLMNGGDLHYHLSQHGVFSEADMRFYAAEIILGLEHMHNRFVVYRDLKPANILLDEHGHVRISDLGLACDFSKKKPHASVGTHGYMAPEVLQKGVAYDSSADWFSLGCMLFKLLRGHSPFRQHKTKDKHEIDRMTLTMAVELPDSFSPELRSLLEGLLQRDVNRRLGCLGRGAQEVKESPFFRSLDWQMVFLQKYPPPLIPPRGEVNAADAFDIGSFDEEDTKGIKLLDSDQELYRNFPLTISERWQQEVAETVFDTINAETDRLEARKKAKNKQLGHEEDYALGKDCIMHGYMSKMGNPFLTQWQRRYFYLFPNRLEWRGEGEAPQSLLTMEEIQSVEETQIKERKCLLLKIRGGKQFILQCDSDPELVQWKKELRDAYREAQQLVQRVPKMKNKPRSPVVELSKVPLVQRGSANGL", "test": "Selectivity interaction (ActivX KiNativ screen (kinase selectivity in THP-1 cell lysates)) EUB0000639a ADRBK1", "type": "subcellular", "settings": "lysate"}, "[4]": {"biological_target": "T3, Serine/threonine-protein kinase D2 (Homo sapiens) (UniProt Q9BZL6)", "T3 sequence (whole entry)": "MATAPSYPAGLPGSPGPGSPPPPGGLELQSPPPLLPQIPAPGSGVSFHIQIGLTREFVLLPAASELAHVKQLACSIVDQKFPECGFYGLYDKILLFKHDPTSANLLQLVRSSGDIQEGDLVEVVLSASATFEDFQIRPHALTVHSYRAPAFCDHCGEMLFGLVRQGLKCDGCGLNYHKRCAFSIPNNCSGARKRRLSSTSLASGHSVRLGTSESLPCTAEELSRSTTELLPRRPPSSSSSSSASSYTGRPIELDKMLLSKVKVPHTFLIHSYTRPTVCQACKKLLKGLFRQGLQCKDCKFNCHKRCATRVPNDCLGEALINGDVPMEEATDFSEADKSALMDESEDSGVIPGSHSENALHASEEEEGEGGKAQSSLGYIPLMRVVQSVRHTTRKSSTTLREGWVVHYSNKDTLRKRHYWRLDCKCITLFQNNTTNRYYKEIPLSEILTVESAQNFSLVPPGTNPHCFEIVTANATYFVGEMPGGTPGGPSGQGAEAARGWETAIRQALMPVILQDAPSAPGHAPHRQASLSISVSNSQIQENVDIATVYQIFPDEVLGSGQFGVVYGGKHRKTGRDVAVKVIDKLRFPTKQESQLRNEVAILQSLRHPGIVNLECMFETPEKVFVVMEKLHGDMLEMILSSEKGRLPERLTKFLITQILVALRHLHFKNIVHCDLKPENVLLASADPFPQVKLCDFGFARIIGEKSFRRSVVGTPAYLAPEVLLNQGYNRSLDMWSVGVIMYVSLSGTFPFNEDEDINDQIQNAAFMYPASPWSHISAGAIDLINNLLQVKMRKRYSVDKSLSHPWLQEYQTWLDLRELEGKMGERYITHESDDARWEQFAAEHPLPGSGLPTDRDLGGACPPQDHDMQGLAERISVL", "test": "Selectivity interaction (KinomeScan (DiscoverX)) EUB0001049a PRKD2", "settings": "at 1 µM"}, "[5]": {"biological_target": "Serine/threonine-protein kinase mTOR (Homo sapiens, UniProt P42345)", "test": "Selectivity interaction (Ambit KINOMEscan and KiNATiv profiling in Jurkat cells) EUB0000090b MTOR", "type": "cell-based", "settings": "at 1 µM"}, "[6]": {"biological_target": "T1, Serine/threonine-protein kinase TAO3 (Homo sapiens)", "test": "Selectivity interaction (Ambit KINOMEscan and KiNATiv profiling in Jurkat cells) EUB0000090b TAOK3", "type": "cell-based", "settings": "at 1 µM"}, "[7]": {"biological_target": "Cyclin-dependent kinase 9 (Homo sapiens, UniProt P50750)", "sequence (P50750 whole entry)": "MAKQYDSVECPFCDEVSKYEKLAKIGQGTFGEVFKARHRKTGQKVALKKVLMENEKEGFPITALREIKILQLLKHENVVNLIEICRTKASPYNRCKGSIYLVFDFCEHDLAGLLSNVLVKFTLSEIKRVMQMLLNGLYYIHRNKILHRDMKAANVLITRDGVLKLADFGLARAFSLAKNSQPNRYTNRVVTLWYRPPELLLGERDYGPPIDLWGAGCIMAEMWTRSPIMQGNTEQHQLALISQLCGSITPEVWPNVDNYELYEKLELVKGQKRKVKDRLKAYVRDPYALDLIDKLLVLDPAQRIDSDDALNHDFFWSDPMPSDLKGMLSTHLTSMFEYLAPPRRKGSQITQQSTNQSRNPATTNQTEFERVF", "test": "Selectivity interaction (KinomeScan (DiscoverX)) EUB0001619a CDK9", "settings": "at 1 µM"}},
  "data": [
    {"molecule": "CCN(CC)CCCCNc1ncc2cc(-c3cc(OC)cc(OC)c3)c(NC(=O)NC(C)(C)C)nc2n1", "values": [
      {"measurement": "% of control", "setting": "[1]", "result": 100, "unit": "%"}
    ]},
    {"molecule": "Cc1ccc(-c2ccc3c(ccc4sc5c(c43)NC[C@@H](C)NC5=O)n2)cn1", "values": [
      {"measurement": "% of inhibition", "setting": "[2]", "result": 19, "unit": "%"}
    ]},
    {"molecule": "CC[C@@H]1[C@H](F)C(=O)N[C@@H]1COc1nccc2cc(C(N)=O)c(OC)cc12", "note": "[ZIMLOVISERTIB]", "values": [
      {"measurement": "% of inhibition", "setting": "[3]; at 0.01 µM", "result": 5.6, "unit": "%"},
      {"measurement": "% of inhibition", "setting": "[3]; at 0.04 µM", "result": 8, "unit": "%"},
      {"measurement": "% of inhibition", "setting": "[3]; at 0.2 µM", "result": 9.7, "unit": "%"},
      {"measurement": "% of inhibition", "setting": "[3]; at 1 µM", "result": 14.3, "unit": "%"},
      {"measurement": "% of inhibition", "setting": "[3]; at 5 µM", "result": 12.1, "unit": "%"}
    ]},
    {"molecule": "COc1cc(Nc2nc(C)cc(-c3cnn4nc(OC)ccc34)n2)cc(C(F)(F)F)c1", "values": [
      {"measurement": "% of control", "setting": "[4]", "result": 100, "unit": "%"}
    ]},
    {"molecule": "CN(C)C/C=C/C(=O)Nc1ccc(C(=O)N2CCCC(Nc3ncc(Cl)c(-c4c[nH]c5ccccc45)n3)C2)cc1", "note": "(stereo unspecified)", "values": [
      {"measurement": "% of control", "setting": "[5]", "result": 100, "unit": "%"},
      {"measurement": "% of control", "setting": "[6]", "result": 97, "unit": "%"}
    ]},
    {"molecule": "N#Cc1cccc(-c2c[nH]c3ncnc(N4CCOCC4)c23)c1", "values": [
      {"measurement": "% of control", "setting": "[7]", "result": 97, "unit": "%"}
    ]}
  ]
}
